Laboratory results from patent US10160724B2, “Tetrahydropyridine derivatives and their use as antibacterial agents” (Dong-A St Co., Ltd., priority 2016, dated 2018).
≈ marks a conversion by molar mass, not a printed value. Read-outs that look alike come from different tables or passages of the source.

Assays:
Experiment in all cases: In vitro antibiotic activity, agar dilution method (Mueller-Hinton agar, NCCLS)
Format in all cases: cell-based
P. aeruginosa PAO1 = conditions: Pseudomonas aeruginosa
Experimental: (§1) To measure the antibiotic activity of the compounds prepared by Examples, antibiotic activity test in vitro was performed by agar dilution method using Mueller-Hinton agar according to the NCCLS (National Committee for Clinical Laboratory Standards. 2000. Methods for dilution antimicrobial susceptibility tests for bacteria that grow aerobiocally. Approved standard, NCCLS document M7-M5, 5th ed, vol 20, no 2. National Committee for Clinical Laboratory Standards, Wayne, Pa.). The test strain was Escherichia coli (ATCC 25922), Klebsiella pneumonia (ATCC 29665) and Pseudomonas aeriginosa (PAO1).

K. pneumoniae ATCC 29665 = conditions: Klebsiella pneumoniae
Experimental: as §1

E. coli ATCC 25922 = conditions: Escherichia coli
Experimental: as §1

[1] = PAO1, agar dilution, Mueller-Hinton agar, read-out: MIC for P. aeruginosa PAO1
[2] = ATCC29665, agar dilution, Mueller-Hinton agar, read-out: MIC for K. pneumoniae ATCC 29665
[3] = ATCC25922, agar dilution, Mueller-Hinton agar, read-out: MIC for E. coli ATCC 25922

SMILES | MIC (P. aeruginosa PAO1; PAO1, read-out: MIC for P. aeruginosa PAO1) | MIC (K. pneumoniae ATCC 29665; ATCC29665, read-out: MIC for K. pneumoniae ATCC 29665) | MIC (E. coli ATCC 25922; ATCC25922, read-out: MIC for E. coli ATCC 25922) | MIC (P. aeruginosa PAO1; [1]) | MIC (K. pneumoniae ATCC 29665; [2]) | MIC (E. coli ATCC 25922; [3])
CN(C)c1ccc(C#Cc2ccc(C3=CCN(CCC(C)(C(=O)NO)S(C)(=O)=O)CC3)cc2)cc1 (stereo not drawn) [Example 1, 4-(4-(4-((4-(dimethylamino)phenyl)ethynyl)phenyl)-3,6-dihydropyridin-1(2H)-yl)-N-hydroxy-2-methyl-2-(methylsulfonyl)butanamide] | > 16 µg/mL | > 16 µg/mL | > 16 µg/mL |  |  | 
CC(CCN1CC=C(c2ccc(C#Cc3ccccc3)cc2)CC1)(C(=O)NO)S(C)(=O)=O (stereo not drawn) [Example 2, N-hydroxy-2-methyl-2-(methylsulfonyl)-4-(4-(4-(phenylethynyl)phenyl)-3,6-dihydropyridin-1(2H)-yl)butanamide] |  |  |  | 1 to 8 µg/mL (≈ 2.21 to 17.7 µM) | 1 to 8 µg/mL (≈ 2.21 to 17.7 µM) | < 1 µg/mL
COc1ccc(C#Cc2ccc(C3=CCN(CCC(C)(C(=O)NO)S(C)(=O)=O)CC3)cc2)cc1 (stereo not drawn) [Example 3, N-hydroxy-4-(4-(4-((4-methoxyphenyl)ethynyl)phenyl)-3,6-dihydropyridin-1(2H)-yl)-2-methyl-2-(methylsulfonyl)butanamide] |  |  |  | > 16 µg/mL | 1 to 8 µg/mL (≈ 2.07 to 16.6 µM) | > 16 µg/mL
CC(CCN1CC=C(c2ccc(C#CC3CC3)cc2)CC1)(C(=O)NO)S(C)(=O)=O (stereo not drawn) [Example 4, 4-(4-(4-(cyclopropylethynyl)phenyl)-3,6-dihydropyridin-1(2H)-yl)-N-hydroxy-2-methyl-2-(methylsulfonyl)butanamide] |  |  |  | 1 to 8 µg/mL (≈ 2.4 to 19.2 µM) | < 1 µg/mL | < 1 µg/mL
CC(CCN1CC=C(c2ccc(C#CCCO)cc2)CC1)(C(=O)NO)S(C)(=O)=O (stereo not drawn) [Example 5, N-hydroxy-4-(4-(4-(4-hydroxybut-1-yn-1-yl)phenyl)-3,6-dihydropyridin-1(2H)-yl)-2-methyl-2-(methylsulfonyl)butanamide] |  |  |  | 1 to 8 µg/mL (≈ 2.38 to 19 µM) | 8 to 16 µg/mL (≈ 19 to 38 µM) | 1 to 8 µg/mL (≈ 2.38 to 19 µM)
CCCCC#Cc1ccc(C2=CCN(CCC(C)(C(=O)NO)S(C)(=O)=O)CC2)cc1 (stereo not drawn) [Example 6, 4-(4-(4-(hex-1-yn-1-yl)phenyl)-3,6-dihydropyridin-1(2H)-yl)-N-hydroxy-2-methyl-2-(methylsulfonyl)butanamide] |  |  |  | 8 to 16 µg/mL (≈ 18.5 to 37 µM) | 1 to 8 µg/mL (≈ 2.31 to 18.5 µM) | < 1 µg/mL
CN(C)CC#Cc1ccc(C2=CCN(CCC(C)(C(=O)NO)S(C)(=O)=O)CC2)cc1 (stereo not drawn) [Example 7, 4-(4-(4-(3-(dimethylamino)prop-1-yn-1-yl)phenyl)-3,6-dihydropyridin-1(2H)-yl)-N-hydroxy-2-methyl-2-(methylsulfonyl)butanamide] |  |  |  | 1 to 8 µg/mL (≈ 2.31 to 18.5 µM) | 1 to 8 µg/mL (≈ 2.31 to 18.5 µM) | 1 to 8 µg/mL (≈ 2.31 to 18.5 µM)
CC(O)C#Cc1ccc(C2=CCN(CCC(C)(C(=O)NO)S(C)(=O)=O)CC2)cc1 (stereo not drawn) [Example 8, N-hydroxy-4-(4-(4-(3-hydroxybut-1-yn-1-yl)phenyl)-3,6-dihydropyridin-1(2H)-yl)-2-methyl-2-(methylsulfonyl)butanamide] |  |  |  | > 16 µg/mL | > 16 µg/mL | > 16 µg/mL
CC(CCN1CC=C(c2ccc(C#CC3CCCC3)cc2)CC1)(C(=O)NO)S(C)(=O)=O (stereo not drawn) [Example 9, 4-(4-(4-(cyclopentylethynyl)phenyl)-3,6-dihydropyridin-1(2H)-yl)-N-hydroxy-2-methyl-2-(methylsulfonyl)butanamide] |  |  |  | > 16 µg/mL | 1 to 8 µg/mL (≈ 2.25 to 18 µM) | < 1 µg/mL
CC(CCN1CC=C(c2ccc(C#CC3CCCCC3)cc2)CC1)(C(=O)NO)S(C)(=O)=O (stereo not drawn) [Example 10, 4-(4-(4-(cyclohexylethynyl)phenyl)-3,6-dihydropyridin-1(2H)-yl)-N-hydroxy-2-methyl-2-(methylsulfonyl)butanamide] |  |  |  | 8 to 16 µg/mL (≈ 17.4 to 34.9 µM) | 8 to 16 µg/mL (≈ 17.4 to 34.9 µM) | 1 to 8 µg/mL (≈ 2.18 to 17.4 µM)
CCCC#Cc1ccc(C2=CCN(CCC(C)(C(=O)NO)S(C)(=O)=O)CC2)cc1 (stereo not drawn) [Example 11, N-hydroxy-2-methyl-2-(methylsulfonyl)-4-(4-(4-(pent-1-yn-1-yl)phenyl)-3,6-dihydropyridin-1(2H)-yl)butanamide] |  |  |  | 1 to 8 µg/mL (≈ 2.39 to 19.1 µM) | 1 to 8 µg/mL (≈ 2.39 to 19.1 µM) | < 1 µg/mL
CC(CCN1CC=C(c2ccc(C#CCC3CCCCC3)cc2)CC1)(C(=O)NO)S(C)(=O)=O (stereo not drawn) [Example 12, 4-(4-(4-(3-cyclohexylprop-1-yn-1-yl)phenyl)-3,6-dihydropyridin-1(2H)-yl)-N-hydroxy-2-methyl-2-(methylsulfonyl)butanamide] |  |  |  | > 16 µg/mL | 8 to 16 µg/mL (≈ 16.9 to 33.9 µM) | 8 to 16 µg/mL (≈ 16.9 to 33.9 µM)
CC(C)CC#Cc1ccc(C2=CCN(CCC(C)(C(=O)NO)S(C)(=O)=O)CC2)cc1 (stereo not drawn) [Example 13, N-hydroxy-2-methyl-4-(4-(4-(4-methylpent-1-yn-1-yl)phenyl)-3,6-dihydropyridin-1(2H)-yl)-2-(methylsulfonyl)butanamide] |  |  |  | 8 to 16 µg/mL (≈ 18.5 to 37 µM) | 1 to 8 µg/mL (≈ 2.31 to 18.5 µM) | < 1 µg/mL
CC(CCN1CC=C(c2ccc(C#CCCCCl)cc2)CC1)(C(=O)NO)S(C)(=O)=O (stereo not drawn) [Example 14, 4-(4-(4-(5-chloropent-1-yn-1-yl)phenyl)-3,6-dihydropyridin-1(2H)-yl)-N-hydroxy-2-methyl-2-(methylsulfonyl)butanamide] |  |  |  | 1 to 8 µg/mL (≈ 2.21 to 17.7 µM) | 1 to 8 µg/mL (≈ 2.21 to 17.7 µM) | < 1 µg/mL
CC(CCN1CC=C(c2ccc(C#CCN3CCCC3)cc2)CC1)(C(=O)NO)S(C)(=O)=O (stereo not drawn) [Example 15, N-hydroxy-2-methyl-2-(methylsulfonyl)-4-(4-(4-(3-(pyrrolidin-1-yl)prop-1-yn-1-yl)phenyl)-3,6-dihydropyridin-1(2H)-yl)butanamide] |  |  |  | 1 to 8 µg/mL (≈ 2.18 to 17.4 µM) | 8 to 16 µg/mL (≈ 17.4 to 34.8 µM) | 1 to 8 µg/mL (≈ 2.18 to 17.4 µM)
CCN(CC)CC#Cc1ccc(C2=CCN(CCC(C)(C(=O)NO)S(C)(=O)=O)CC2)cc1 (stereo not drawn) [Example 16, 4-(4-(4-(3-(diethylamino)prop-1-yn-1-yl)phenyl)-3,6-dihydropyridin-1(2H)-yl)-N-hydroxy-2-methyl-2-(methylsulfonyl)butanamide] |  |  |  | 1 to 8 µg/mL (≈ 2.17 to 17.3 µM) | 1 to 8 µg/mL (≈ 2.17 to 17.3 µM) | 1 to 8 µg/mL (≈ 2.17 to 17.3 µM)
CC(CCN1CC=C(c2ccc(C#CCN3CCC[C@H]3CO)cc2)CC1)(C(=O)NO)S(C)(=O)=O (stereo partly drawn) [Example 17, N-hydroxy-4-(4-(4-(3-((S)-2-(hydroxymethyl)pyrrolidin-1-yl)prop-1-yn-1-yl)phenyl)-3,6-dihydropyridin-1(2H)-yl)-2-methyl-2-(methylsulfonyl)butanamide] |  |  |  | 1 to 8 µg/mL (≈ 2.04 to 16.3 µM) | 8 to 16 µg/mL (≈ 16.3 to 32.7 µM) | > 16 µg/mL
CC(CCN1CC=C(c2ccc(C#CCCCO)cc2)CC1)(C(=O)NO)S(C)(=O)=O (stereo not drawn) [Example 18, N-hydroxy-4-(4-(4-(5-hydroxypent-1-yn-1-yl)phenyl)-3,6-dihydropyridin-1(2H)-yl)-2-methyl-2-(methylsulfonyl)butanamide] |  |  |  | 1 to 8 µg/mL (≈ 2.3 to 18.4 µM) | 1 to 8 µg/mL (≈ 2.3 to 18.4 µM) | < 1 µg/mL
CC(CCN1CC=C(c2ccc(C#CCCCOS(C)(=O)=O)cc2)CC1)(C(=O)NO)S(C)(=O)=O (stereo not drawn) [Example 19, 5-(4-(1-(4-(hydroxyamino)-3-methyl-3-(methylsulfonyl)-4-oxobutyl)-1,2,3,6-tetrahydropyridin-4-yl)phenyl)pent-4-yn-1-yl methanesulfonate] |  |  |  | 1 to 8 µg/mL | 1 to 8 µg/mL | < 1 µg/mL
CN(C)CCCC#Cc1ccc(C2=CCN(CCC(C)(C(=O)NO)S(C)(=O)=O)CC2)cc1 (stereo not drawn) [Example 20, 4-(4-(4-(5-(dimethylamino)pent-1-yn-1-yl)phenyl)-3,6-dihydropyridin-1(2H)-yl)-N-hydroxy-2-methyl-2-(methylsulfonyl)butanamide] |  |  |  | 8 to 16 µg/mL (≈ 17.3 to 34.7 µM) | 8 to 16 µg/mL (≈ 17.3 to 34.7 µM) | 1 to 8 µg/mL (≈ 2.17 to 17.3 µM)
CC(CCN1CC=C(c2ccc(C#CCCCN)cc2)CC1)(C(=O)NO)S(C)(=O)=O (stereo not drawn) [Example 21, 4-(4-(4-(5-aminopent-1-yn-1-yl)phenyl)-3,6-dihydropyridin-1(2H)-yl)-N-hydroxy-2-methyl-2-(methylsulfonyl)butanamide] |  |  |  | > 16 µg/mL | > 16 µg/mL | 8 to 16 µg/mL (≈ 18.5 to 36.9 µM)
CC(CCN1CC=C(c2ccc(C#CCO)cc2)CC1)(C(=O)NO)S(C)(=O)=O (stereo not drawn) [Example 22, N-hydroxy-4-(4-(4-(3-hydroxyprop-1-yn-1-yl)phenyl)-3,6-dihydropyridin-1(2H)-yl)-2-methyl-2-(methylsulfonyl)butanamide] |  |  |  | 1 to 8 µg/mL (≈ 2.46 to 19.7 µM) | > 16 µg/mL | 1 to 8 µg/mL (≈ 2.46 to 19.7 µM)
COCC#Cc1ccc(C2=CCN(CCC(C)(C(=O)NO)S(C)(=O)=O)CC2)cc1 (stereo not drawn) [Example 23, N-hydroxy-4-(4-(4-(3-methoxyprop-1-yn-1-yl)phenyl)-3,6-dihydropyridin-1(2H)-yl)-2-methyl-2-(methylsulfonyl)butanamide] |  |  |  | 1 to 8 µg/mL (≈ 2.38 to 19 µM) | 1 to 8 µg/mL (≈ 2.38 to 19 µM) | < 1 µg/mL
CC(CCN1CC=C(c2ccc(C#CCOCCCO)cc2)CC1)(C(=O)NO)S(C)(=O)=O (stereo not drawn) [Example 24, N-hydroxy-4-(4-(4-(3-(3-hydroxypropoxy)prop-1-yn-1-yl)phenyl)-3,6-dihydropyridin-1(2H)-yl)-2-methyl-2-(methylsulfonyl)butanamide] |  |  |  | 1 to 8 µg/mL (≈ 2.15 to 17.2 µM) | 1 to 8 µg/mL (≈ 2.15 to 17.2 µM) | 1 to 8 µg/mL (≈ 2.15 to 17.2 µM)
CC(CCN1CC=C(c2ccc(C#CCN3CCOCC3)cc2)CC1)(C(=O)NO)S(C)(=O)=O (stereo not drawn) [Example 25, N-hydroxy-2-methyl-2-(methylsulfonyl)-4-(4-(4-(3-morpholinoprop-1-yn-1-yl)phenyl)-3,6-dihydropyridin-1(2H)-yl)butanamide] |  |  |  | 1 to 8 µg/mL (≈ 2.1 to 16.8 µM) | 1 to 8 µg/mL (≈ 2.1 to 16.8 µM) | 1 to 8 µg/mL (≈ 2.1 to 16.8 µM)
CC(CCN1CC=C(c2ccc(C#CCOC(N)=O)cc2)CC1)(C(=O)NO)S(C)(=O)=O (stereo not drawn) [Example 26, 3-(4-(1-(4-(hydroxyamino)-3-methyl-3-(methylsulfonyl)-4-oxobutyl)-1,2,3,6-tetrahydropyridin-4-yl)phenyl)prop-2-yn-1-yl carbamate] |  |  |  | 1 to 8 µg/mL (≈ 2.22 to 17.8 µM) | 8 to 16 µg/mL (≈ 17.8 to 35.6 µM) | 1 to 8 µg/mL (≈ 2.22 to 17.8 µM)
